# Source: patent US7105573B2, “Methods and compositions for the treatment of alopecia and other disorders of the pilosebaceous apparatus” (Orentreich Foundation for the Advancement of Science, Inc., priority 2000, dated 2006)
# Structures can show the parent of a compound that is named as a salt. Where two headings read alike, the source gives them in different places.
# Key:
# [1] = test system: skin of the hairless mouse; experiment: Skin redness in hairless mouse, 11 days of treatment; type: in vivo; conditions: 50 μL, 2× per day
# [2] = test system: hair loss in aged female obese (C57BL/6J-ob/ob) mice; experiment: Oral metformin and hair loss in aged female obese mice (Example 1); type: in vivo
# Description: The objective of the experiments in this Example is to examine the effects of the biguanide […] metformin on hair loss in aged female obese (C57BL/6J-ob/ob) mice. The hypothesis tested is that metformin, when administered in these mice at a relatively young age, will increase insulin sensitivity, thereby preventing or slowing the progression of hair loss.
# Animals: Female C57BL/6J Lep , ob/ob. (homozygous) and C57BL/6J Lep <ob/+> (heterozygous) mice are purchased from the Jackson Laboratory (Bar Harbor, Me.). All animals are housed at a density of 2–3 animals per cage and are maintained on a photoperiod of 12 h light: 12 h dark. Food and water are provided ad libitum.
# The dosage is adjusted each week to reflect changes in body weight. Since the animals are group housed, the adjustment is made based on the mean weight of the treatment group, rather than on an animal-to-animal basis. The water is changed twice per week. Periodically the concentration of the metformin in the drinking water is verified by HPLC.
# Experimental groups: The ob/+ animals are not entered into the study until two weeks after the ob/ob mice. […] Thus, once the ob/+ are 7 weeks of age, they are entered in the study.
# Parameters monitored: Body weight, food and water consumption are monitored twice per week. Blood samples are collected from the orbital sinus of unanesthesized mice at the baseline and on a monthly basis for the duration of the study. These blood collections are designed to monitor serum glucose and insulin levels. C-peptide and insulin-like growth factor 1 (IGF-1) are also monitored periodically throughout the study. Blood samples for C-peptide analysis are collected following an overnight fast. Selected animals are photographed throughout the study to document the slowing or progression of hair loss.
# [3] = Description: (§1) If more neutral solutions are required, a penetration enhancing agent should be used to help deliver the drug to the dermis. […] Some, like dimethylsulfoxide (DMSO), are applied to the skin for 10–15 minutes prior to administration of the drug, while others, such as myristylamine oxide (MAO), SEPA and N-methyl pyrrolidone (NMP), can be added to the inventive composition in the appropriate concentration before applying to the skin.
# [4] = test system: alopecic female ob/ob mice; experiment: Topical biguanide / metformin hair growth in obese (ob/ob) mouse model (Example 3); type: in vivo
# Description: When pharmaceutically acceptable salts of biguanide were applied in reasonable concentrations (e.g., about 0.5% to about 10%) in a suitable topical vehicle (e.g., solution, tincture, gel, lotion, cream or ointment) containing a suitable penetration enhancing agent (e.g., surfactant, DMSO, N-methyl pyrrolidone), the growth of hair was stimulated in the obese (ob/ob) mouse model.
# Two alopecic female ob/ob mice were treated with 0.8% topical metformin for three months beginning at 13 months of age. Applications of 50 ul were made twice per day (except weekends) to the alopecic (intrascapular) site.
# [5] = test system: obese (ob/ob -Thieller background) mouse; conditions: 240 mg/kg/d in drinking water for 4 weeks; cited from earlier work
# [6] = test system: hair loss in C57BL/6J Lep (ob) female mice; experiment: Oral troglitazone ob/ob female mice study (Example 6); type: in vivo; conditions: 350 days; 0.2% troglitazone in diet; control 100%
# Description: This study involved oral administration of troglitazone (Rezulin®) to C57BL/6J Lep (ob) female mice.
# Non-alopecic female ob/ob mice (7 weeks at start of study) are maintained on a photoperiod of 12 h light:12 h dark. Food (Purina 5001 Meal diet or Purina 5001 with 0.2% troglitazone) and water (acidified pH 2.5) are provided ad libitum.
# Troglitazone (Rezulin®) is purchased from Parke-Davis (Morris Plains, NJ) in tablet form. The entire tablet (including the coat) is crushed in a blender prior to being incorporated into the diet. The amount of troglitazone added to the diet is adjusted to account for the weight of the tablet and the actual amount of the drug (400 mg/tablet) incorporated into the tablet.
# The progression of hair loss is monitored by the investigator on a weekly to biweekly basis. The dorsal hair coat is photographed on a monthly basis to chart the onset and/or progression of alopecia.
# [7] = Skin irritation of metformin base and salts in 50% SDA / 2% butylene glycol vehicle; type: in vivo; conditions: applied in 50% SDA, 2% butylene glycol in water
# [8] = test system: age-dependent hair loss in female ob/ob (obese) mice; experiment: Oral metformin hydrochloride and age-dependent hair loss in female ob/ob mice (Example 5); type: in vivo
# Description: Twenty-one female C57BL/6J ob/ob mice were purchased from the Jackson Laboratory (Bar Harbour, Me.) at five weeks of age. […] Dosages were adjusted on a weekly basis to reflect changes observed in body weight. All animals were group housed and were allowed access to standard laboratory chow and water ad libitum. The progression of hair loss was documented throughout the study.
# [9] = remark: listed apart in the source
# Description: For production of the test materials described herein, it is dissolved in water to twice the desired final concentration, then mixed with an equal volume of a solution of 4% butylene glycol in special denatured alcohol (SDA) for a final concentration of 50% SDA and 2% butylene glycol. […] Preferred concentrations are about 0.8% to about 2.0%.
# as §1
# It is important to remove the salts that are produced during this process. Therefore, the mixture is lyophilized, and the dry powder reconstituted in absolute ethanol.
compound,measurement,setting,value
"CCCCCCCCCCC1COC(=O)N1 (stereo not shown) [SR-38, 4-decyloxazolidin-2-one]",redness on the skin,[1],"only mild, temporary redness"
CN(C)C(=N)N=C(N)N [metformin],onset of hair loss,"[2]; female ob/ob mice, 240 mg/kg/d in drinking water",delayed
same,hair loss in ob/+ mice,"[2]; ob/+ (heterozygous) mice, 240 mg/kg p.o.",not observed
same,hair loss observed (% of animals affected),"[2]; ob/ob mice at 10 months of age (nearly 8 months of treatment), 240 mg/kg p.o., control 36%",8%
same,penetration of the applied metformin dose,[3],up to 20%
same,share of composition passing through the dermis,[3],over 90%
same,pigmentation at the alopecic site (onset of anagen),"[4]; 0.8% topical, 50 ul twice per day, after two months of treatment, two alopecic female ob/ob mice, 13 months of age at start",presence of pigmentation at the alopecic site
same,emergence of new hairs at the alopecic site,"[4]; 0.8% topical, the week following two months of treatment",small hairs emerging from the skin
same,persistence of new hairs after withdrawal of treatment,[4]; observed for 6 weeks after the three-month treatment,new hairs remained intact
same,concentration of hepatocyte high and low affinity insulin receptors,[5],increase
same,hypoglycemic response to exogenous insulin,[5],did not alter
same,plasma insulin levels,[5],lowered
Cc1c(C)c2c(c(C)c1O)CCC(C)(COc1ccc(CC3SC(=O)NC3=O)cc1)O2 (stereo not shown) [troglitazone],animals exhibiting some degree of hair loss,[6],60%
CN(C)C(=N)NC(=N)N [Metformin base],absorbed through skin,[3],75%–88%
same,irritation to the skin,[7],significant irritation
"CN(C)C(=N)N=C(N)N [Metformin HCl, Metformin hydrochloride]",penetration to the dermis as a function of pH,[3],improves as pH increases
same,absorbed through skin,[3]; 6 h,< 1%
same,percutaneous absorption (absorbed),[3]; 6 h,<1%
same,irritation to the skin,[7],no irritation
same,incidence of hair loss,"[8]; 300 days of age, controls about 40%",about 20%
same,incidence of hair loss,"[8]; 370 days of age, excluding animals with only possible thinning of the hair coat, controls greater than 60%",30%
same,onset of hair loss,"[8]; female ob/ob mice, 240 mg/kg/d in acid water",delayed
same,incidence of spontaneous skin condition (may resemble acanthosis nigricans or migratory ichthyosis),"[8]; relative to control animals, the majority of which were affected",markedly less incidence
"N=C(N)NC(=N)N [Biguanide, Biguanide (NH2C(═NH)NHC(═NH)NH2)]",long-term chemical stability in water,[9],limited long-term chemical stability in water
same,solubility in water,[9],water soluble
"CN(C)C(=N)N=C(N)N.O=C(O)c1cc2ccccc2c(Cc2c(O)c(C(=O)O)cc3ccccc23)c1O [Metformin pamoate, metformin pamoate]",absorbed through skin,[3],< 1%
same,penetration on addition of SR-38 to the formula,[3],similarly improved
same,irritation to the skin,[7],no irritation
